Measured values from patent US20100183585A1, “METHODS AND COMPOSITIONS FOR TREATING TUMORS AND METASTASES THROUGH THE MODULATION OF LATEXIN” (University of Kentucky Research Foundation, priority 2008, published 2010).

System: latexin
Experiment: latexin mRNA by quantitative real-time PCR in leukemic cell lines after 5-aza-2′-deoxycytidine treatment
Assay type: cell-based, human
Settings: for latexin gene expression: 2 μM for 4 days
Protocol: To measure the expression of latexin in leukemic cells, quantitative real-time PCR was performed. Identical numbers (200,000) of cells were used for total RNA extraction using RNeasy Mini kit (QIAGEN, Valencia, Calif.) according to the manufacture's instructions. Isolated total RNA was reverse transcribed into cDNA using random hexamers in TaqMan® reverse transcription solution (PN N8080234), and stored at −20° C. In real-time PCR reactions, primer and probe mix for human latexin were purchased from Applied Biosystems (Foster city, CA, USA). TaqMan® human glyceraldehyde-3-phosphate dehydrogenase (GAPDH) was served as an endogenous control to normalize latexin expression. PCR reactions were set up as per manufacturer's instructions using TaqMan® universal PCR master mix (PN 4304437). Analyses of gene expression were performed in single reporter assays in an ABI PRISM 7700 sequence detection system (PE Biosystems, Foster city, CA, USA).
To examine the correlation of promoter hypermethylation and latexin gene expression, leukemia cell lines shown to have a lack of or decrease in latexin expression were subjected to 5-aza-2′-deoxycytidine treatment. Cells were plated with 2 ? M 5-aza-2′-deoxycytidine (Sigma-Aldrich; St. Louis, Mo.), and incubated for 4 days. The medium and the drug were replaced every 24 hours, and cells were harvested for RNA and DNA extraction 4 days after treatment.

For Nc1ncn([C@H]2C[C@H](O)[C@@H](CO)O2)c(=O)n1 [5-aza-2′-deoxycytidine], the latexin gene expression (HL-60, KG-1, SupB15 lines) was “significantly up-regulated”, the latexin gene expression (K562, Molt4, CCRF-CEM, J45.01, Jurkat, U937 (completely lacked latexin expression prior to treatment)) was “reactivated” and the latexin expression (human leukemia and lymphoma cell lines treated with the demethylating reagent) was “re-initiated or up-regulated”.
